# Assay results reported in the supplement of paper PMC6045584.
# ± gives the standard deviation of the averaged measurements.
# Assays:
# [1] = compound: CCN(CC)CCCCNc1ncc2cc(-c3cc(OC)cc(OC)c3)c(NC(=O)NC(C)(C)C)nc2n1; assay: surviving fraction relative to DMSO-only wells; higher = less growth inhibition; details: exposure time: 5 days
# In short: (§1)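 Luminescence normalised to the median of DMSO-only wells defines surviving fraction, with viability read by CellTiter-Glo. Signal was recorded after 10 minutes at room temperature, once log-phase tumour cell lines seeded at 250–500 cells per well in 384-well plates had spent 24 hours settling and then five days under continuous exposure to inhibitors at 0.5, 1, 5, 10, 50, 100, 500 and 1000 nM.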
# [2] = compound: COc1ccc(C2=N[C@@H](c3ccc(Cl)cc3)[C@@H](c3ccc(Cl)cc3)N2C(=O)N2CCNC(=O)C2)c(OC(C)C)c1 [NUTLIN3]; assay: as above; details: exposure time: 5 days
# In short: as §1
Test System,surviving fraction ([1]; 0.5 nM),surviving fraction ([1]; 1 nM),surviving fraction ([1]; 5 nM),surviving fraction ([1]; 10 nM),surviving fraction ([1]; 50 nM),surviving fraction ([1]; 100 nM),surviving fraction ([1]; 500 nM),surviving fraction ([1]; 1000 nM),surviving fraction ([2]; 0.5 nM),surviving fraction ([2]; 1 nM),surviving fraction ([2]; 5 nM),surviving fraction ([2]; 10 nM),surviving fraction ([2]; 50 nM),surviving fraction ([2]; 100 nM),surviving fraction ([2]; 500 nM),surviving fraction ([2]; 1000 nM)
22RV1 PROSTATE,1 ± 0.029,1.02 ± 0.048,0.964 ± 0.011,1.01 ± 0.013,0.997 ± 0.034,1.02 ± 0.044,1.04 ± 0.04,1.05 ± 0.036,1.01 ± 0.046,1.04 ± 0.013,0.96 ± 0.068,0.99367 ± 0.00058,0.981 ± 0.079,1.01 ± 0.074,0.95 ± 0.062,0.777 ± 0.047
93VU HEADNECK,0.952 ± 0.063,0.975 ± 0.062,1.02 ± 0.1,1.03 ± 0.11,1.03 ± 0.095,0.884 ± 0.18,1.01 ± 0.085,0.949 ± 0.076,1 ± 0.12,0.982 ± 0.14,1.09 ± 0.1,1.1 ± 0.076,1.12 ± 0.12,1.21 ± 0.013,1.05 ± 0.12,1.02 ± 0.025
143B BONE,0.941 ± 0.078,0.997 ± 0.026,0.954 ± 0.068,1.02 ± 0.032,1.01 ± 0.016,1.01 ± 0.061,0.97 ± 0.054,0.995 ± 0.038,1.04 ± 0.019,1.02 ± 0.022,1.03 ± 0.029,1.024 ± 0.0085,1.06 ± 0.039,1.029 ± 0.0099,1.05 ± 0.017,1.01 ± 0.073
A549 LUNG,0.975 ± 0.015,0.97 ± 0.049,0.949 ± 0.036,0.952 ± 0.042,0.963 ± 0.01,1.032 ± 0.0046,1.006 ± 0.0065,1.05 ± 0.061,0.984 ± 0.03,0.996 ± 0.031,0.963 ± 0.026,0.953 ± 0.016,1.01 ± 0.084,1.02 ± 0.019,1.04 ± 0.053,1.08 ± 0.061
ASKA SYNOVIAL,1.04 ± 0.044,1.14 ± 0.029,1.19 ± 0.046,1.09 ± 0.091,1.14 ± 0.046,1.18 ± 0.065,1.09 ± 0.086,0.992 ± 0.013,1.04 ± 0.04,1.13 ± 0.039,1.2 ± 0.055,1.03 ± 0.015,1.02 ± 0.064,1.05 ± 0.041,0.748 ± 0.035,0.512 ± 0.014
BT20 BREAST,1.17 ± 0.13,1.17 ± 0.065,1.09 ± 0.26,1.17 ± 0.09,1.17 ± 0.12,1.12 ± 0.029,1.53 ± 0.17,1.64 ± 0.057,1.1 ± 0.18,1.11 ± 0.14,1.09 ± 0.07,1.01 ± 0.14,1.05 ± 0.24,1.07 ± 0.23,1.15 ± 0.25,1.12 ± 0.18
BT549 BREAST,1.16 ± 0.13,1.16 ± 0.11,1.15 ± 0.11,1.19 ± 0.077,1.18 ± 0.17,1.04 ± 0.096,0.932 ± 0.059,0.843 ± 0.068,1.16 ± 0.13,1.07 ± 0.11,1.07 ± 0.063,1.12 ± 0.11,1.18 ± 0.1,1.07 ± 0.067,1.17 ± 0.13,1.08 ± 0.25
C33A CERVIX,0.832 ± 0.044,0.831 ± 0.077,0.921 ± 0.068,0.914 ± 0.1,0.968 ± 0.1,0.871 ± 0.12,0.828 ± 0.073,0.814 ± 0.065,0.888 ± 0.04,0.928 ± 0.034,0.919 ± 0.084,0.905 ± 0.039,0.978 ± 0.094,1.04 ± 0.055,0.959 ± 0.068,1.03 ± 0.094
CADOES1 SOFT TISSUE,0.942 ± 0.1,0.905 ± 0.1,0.935 ± 0.21,0.913 ± 0.071,0.895 ± 0.076,0.9 ± 0.036,0.901 ± 0.056,1.05 ± 0.043,0.96 ± 0.077,0.925 ± 0.056,0.982 ± 0.036,0.801 ± 0.17,0.841 ± 0.077,0.874 ± 0.037,0.741 ± 0.014,0.517 ± 0.017
CAL51 BREAST,0.92 ± 0.063,0.943 ± 0.013,0.964 ± 0.061,0.961 ± 0.042,0.858 ± 0.035,0.83 ± 0.03,0.673 ± 0.019,0.6517 ± 0.0035,0.944 ± 0.012,0.928 ± 0.059,0.999 ± 0.053,0.979 ± 0.018,1.05 ± 0.054,1.01 ± 0.038,0.816 ± 0.1,0.707 ± 0.09
